Results as given in patent US4963553A, “4-[(substituted) alkylcarbonyl]-4,5-dihydro- and -4,5,6,7-tetrahydro-7-[(substituted)phenyl]pyrazolo[1,5-a]pyrimidines” (American Cyanamid Co., priority 1988, dated 1990).
Structures can show the parent of a compound that is named as a salt.

Legend:
[1] = tested on: mice (anoxic induced amnesia); assay: Passive Avoidance Anoxic Induced Amnesia Test; type: in vivo, mouse (Swiss-Webster, middle-aged); settings: intraperitoneal, vs saline control
Text: A useful in vivo test associated with decreased neural function in mammals is the Passive Avoidance Anoxic Induced Amnesia Test. This test is used to determine the attenuation of anoxic induced amnesia in mice treated with drug, as compared to saline treated control animals with no drug. A shock-motivated, single trial, step-through passive avoidance procedure is used. Groups of 25 Swiss-Webster, middle-aged mice (9 months of age) are placed singly in the front chamber of a 2-chamber box and are allowed to voluntarily cross into the rear chamber. As soon as the mouse enters the rear chamber, a door automatically traps the animal and a mild electric shock (0.4 mA for 4 seconds) is delivered to its feet. Following the foot shock, the mice are initially placed in an anoxic environment (0% oxygen) for 12 seconds, which quickly induces unconsciousness. […] All testing is performed 24 hours later, and in all cases the mice appear fully recovered from the previous anoxic/hypoxic treatment. […] Control animals are injected intraperitoneally only with saline at 0.01 ml/g of body weight. The latent period prior to entering the rear chamber is recorded for both training and testing sessions. The greater the memory of being shocked, the greater the reluctance to enter into the rear chamber and the higher will be the latent period prior to re-entry. […]

[2] = tested on: mice (hypoxic environment); assay: Hypoxic survival test; type: in vivo, mouse (Royal Hart); settings: intraperitoneal, 10% oxygen, 5 minutes
Outline: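 Groups of 20 Royal Hart mice (6 weeks old) dosed i.p. with compound in saline at 1–200 mg/kg, 30 minutes before exposure to 10% oxygen/90% carbon dioxide; survival scored after 5 minutes. Saline and physostigmine (0.125 mg/kg i.p.) groups run in parallel.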

[3] = molecular target: T1, human platelet membranes (3H-imipramine receptor) (Homo sapiens, UniProt P31645); assay: 3H-imipramine binding to human platelet membranes
T1 construct: Fresh human platelet concentrates (less than 48 hours old) were obtained from the New York Blood Center; tissue New York Blood Center; host or cells: human blood platelets, membranes
T1 sequence (P31645 whole entry): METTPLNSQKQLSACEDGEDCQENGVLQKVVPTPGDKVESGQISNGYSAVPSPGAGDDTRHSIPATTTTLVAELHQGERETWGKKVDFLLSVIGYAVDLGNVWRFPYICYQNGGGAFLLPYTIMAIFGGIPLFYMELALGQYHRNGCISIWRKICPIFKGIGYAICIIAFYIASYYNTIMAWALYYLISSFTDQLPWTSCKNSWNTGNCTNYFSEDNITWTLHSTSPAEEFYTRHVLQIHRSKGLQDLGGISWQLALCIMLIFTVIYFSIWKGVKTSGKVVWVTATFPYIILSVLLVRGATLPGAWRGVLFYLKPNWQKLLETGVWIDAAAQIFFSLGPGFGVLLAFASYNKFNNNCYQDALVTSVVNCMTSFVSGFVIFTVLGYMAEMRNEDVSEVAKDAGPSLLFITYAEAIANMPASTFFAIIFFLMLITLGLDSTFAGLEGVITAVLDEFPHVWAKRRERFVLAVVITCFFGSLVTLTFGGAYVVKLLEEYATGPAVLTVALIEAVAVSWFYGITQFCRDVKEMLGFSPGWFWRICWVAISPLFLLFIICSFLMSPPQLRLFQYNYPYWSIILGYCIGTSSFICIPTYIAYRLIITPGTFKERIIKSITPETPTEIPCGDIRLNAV
Description: The activity of the compounds of the invention as antidepressant agents was further verified# in the following test which measures the ability of a test compound to inhibit 3H-imipramine binding to human platelet membranes.
Platelet membranes were obtained using the procedure described by Wennogle, L. et al., Pharmac. Biochem. Behav., 15. 975 (1981). Fresh human platelet concentrates (less than 48 hours old) were obtained from the New York Blood Center. These concentrates were prepared in a citrate-dextrose anticoagulant using standard techniques. Platelets were washed twice by centrifugation (2500×G, 10 minutes) in 50 volumes of an antiprotease buffer containing 0.005M Tris potassium chloride, 0.12M sodium chloride, 0.05M Tris pH 7.5, 0.025 Units/ml aprotinin, 0.05 μg/m pepstatin, 2×10^-5 bacitracin, 3 mM ethylenediaminetetraacetic acid and 1.0 mM ethyleneglycol-bis (β-aminoethylether)N,N'-tetra-acetic acid. […] All procedures were conducted at 0° C. using plastic laboratory-ware throughout the platelet membrane preparation. Platelets were resuspended in 20 volumes of buffer and sonicated 3 times using 10 second bursts of a Branson sonifier (cell disrupter 350) at setting 6 (standard 3/4 inch horn), keeping the sample on ice throughout the procedure. Platelet membranes were then washed twice at 18,000×G for 20 minutes with 50 volumes of the antiprotease buffer and resuspended to 3.0 mg. protein/ml using the Bradford protein analysis with bovine gamma globulin as standard. Membranes were used immediately or stored frozen in liquid nitrogen.
The displacement of 3H-imipramine binding to human platelet membranes was performed essentially as described by Paul, S. M., et al., Life Sci., 953 (1980) with the following modifications. Membranes (0.3 mg protein) were suspended in antiprotease buffer with both […] 3H-imipramine (New England Nuclear) and displacing drug or buffer in a total volume of 250 #1 in glass test tubes. Samples were incubated for 90 minutes at 0° C., then diluted to 5 ml in 0.12M sodium chloride, 0.005M potassium chloride, 0.05M Tris pH 7.5 (wash buffer) and immediately filtered through GF/B Whatman Filters and washed twice with 5 ml of wash buffer. Filters were counted in a liquid scintillation counter after addition of Beckman HP Scintillant.
Non-specific binding of 3H-imipramine was defined as that fraction (generally 35%) of radioactivity that was not displaced by 10 μM desmethylimipramine. Specific binding was determined by subtraction of this non-specific level from values for total 3H-imipramine binding which were measured by incubating 3H-imipramine in the absence of displacing drug. Compounds were tested in duplicate test tubes at a concentration of 10 μM. Compounds which inhibited binding by more than 50% were considered to be active.

[4] = tested on: Spontaneously Hypertensive Rats; assay: Hypotensive activity: mean arterial blood pressure in spontaneously hypertensive rats; type: in vivo, rat (Okamoto strain, male); settings: SHR, gavage, 100 mg/kg or less, two doses 24 h apart, measured at 28 hours; average MABP of rats used 160±1.5 mm
Description: The novel compounds of the invention are active hypotensive agents at nontoxic doses when administered to mammals. These compounds were tested for hypotensive activity by the method of P. S. Chan and D. W. Poorvin, Clinical and Experimental Hypertension, (6), 817-830 (1979). Male, 16 week old, spontaneously hypertensive rats of the Okamoto strain (Taconic Farms, Germantown, N.Y.) having an average means arterial blood pressure of 160±1.5 mm of mercury are used in the test. A rat is dosed by gavage with a test compound, suspended in 2% pre-boiled starch at a concentration of 50 mg/ml, at a dose of 100 mg/kg of body weight or less, with 0.9% sodium chloride loading at a dose of 25 ml/kg of body weight. A second identical dose of the test compound, without sodium chloride loading is given 24 hours later. At 28 hours after the initial dose the mean arterial blood pressure is measured by the method of Chan and Poorvin vide supra.

[5] = tested on: Brain-Specific Receptors of Rats (3H-benzodiazepine binding); assay: Inhibition of the binding of 3H-benzodiazepine to brain-specific receptors of rats; parameters: species or system rat (Wistar strain, whole cortex); settings: rat cortex P2 fraction, 3H-diazepam 1.5 nM or 3H-flunitrazepam 1.0 nM
Text: Another test utilized for the determination of anxiolytic activity is the measurement of the ability of a test compound to inhibit the binding of tritiated benzodiazepines to brain-specific receptors of mammals. A modification of the method described by R. F. Squires, et al., Nature, 266 (21), 732 (Apr., 1977) and H. Mohler, et al., Science, 198, 849 (1977) was employed. […] The test compounds were solubilized in dimethylformamide, acetic acid, ethanol or hydrochloric acid. […] (1) resuspended in twice the original volume in hypotonic 50 mM Tris.HCl (pH 7.4), or (2) resuspended in one-half the original volume in hypotonic 10 mM Tris.HCl (pH 7.4) and frozen (-20° C.) until time. of use. Frozen P2 preparations were thawed and resuspended in four times the original homogenizing volume at time of assay. […] Incubation for 30 minutes proceeded in ice and was terminated by filtration, under vacuum, through glass fiber filters. The filters were washed twice with 5 ml of ice-cold 50 mM Tris.HCl (pH 7.4) and placed in scintillation vials. After drying at 50°-60° C. for 30 minutes, 10 ml of diluent was added and the radioactivity determined in a scintillation counter. Inhibition of binding was calculated by the difference between total binding and binding in the presence of test compound, divided by the total binding, X 100.

[6] = Mus musculus, ip, 5 min, 100 mg/kg, read-out: % Survivors

N#Cc1cnn2c1N(C(=O)CN1CCN(CC#CCN3CCCC3=O)CC1)CC=C2c1cccc(C(F)(F)F)c1 [Example 109, 4,5-Dihydro-4-[[4-[4-(2-oxo-1-pyrrolidinyl)-2-butynyl]-1-piperazinyl]acetyl]-7-[3-(trifluoromethyl)phenyl]pyrazolo[1.5-a]pyrimidine-3-carbonitrile]
% Improvement ([1]; 1 mg/kg): 63% | responders at 100 mg/kg [2, 6]: 68%

N#Cc1cnn2c1N(C(=O)CN1CCN(Cc3ccc(Cl)cc3)CC1)CC=C2c1cccc(C(F)(F)F)c1 [Example 39, 4-[[4-[(4-Chlorophenyl)methyl]-1-piperazinyl]acetyl]-7-[3-(trifluoromethyl)phenyl]pyrazolo[1,5-a]pyrimidine-3-carbonitrile]
inhibition at 10 µM [3]: 84%

N#Cc1cnn2c1N(C(=O)CCN1CCN(Cc3ccc(Cl)cc3)CC1)CC=C2c1cccc(C(F)(F)F)c1 [Example 85, 4-[3-[(4-Chlorophenyl)methyl]-1-piperazinyl]-1-oxopropyl]dihydro-7-[3-(trifluoromethyl)phenyl]pyrazolo[1,5-a]pyrimidine-3-carbonitrile, dihydrochloride]
inhibition at 10 µM [3]: 85%

N#Cc1cnn2c1N(C(=O)CN1CCN(Cc3cnn(-c4ccccc4)n3)CC1)CC=C2c1cccc(C(F)(F)F)c1 [Example 146]
% Improvement ([1]; 100 mg/kg): 92% | responders at 100 mg/kg [2, 6]: 52.5%

N#Cc1cnn2c1N(C(=O)CN1CCN(Cc3ccccc3)CC1)CC=C2c1ccccc1 [Example 147, 4,5-Dihydro-7-phenyl-4-[[4-(phenylmethyl)-1-piperazinyl]acetyl]pyrazolo[1,5-a]pyrimidine-3-carbonitrile]
% Improvement ([1]; 25 mg/kg): 45% | responders at 100 mg/kg [2, 6]: 50%

Cl.N#Cc1cnn2c1N(C(=O)CN1CCN(Cc3ccccc3)CC1)CC=C2c1cccc(C(F)(F)F)c1 [Example 94, 4,5-Dihydro-4-[[4-(phenylmethyl)-1-piperazinyl]acetyl]-7-[3-(trifluoromethyl)phenyl]pyrazolo[1,5-a]pyrimidine-3-carbonitrile, hydrochloride]
% Improvement ([1]; 10 mg/kg): 30% | % Survivors ([2]; 100 mg/kg): 83%

CC1=C(c2ccc(Cl)cc2)n2ncc(C#N)c2N(C(=O)CN2CCN(Cc3cccc(Cl)c3)CC2)C1 [Example 133, 7-(4-Chlorophenyl)-4-[[4-[(3-chlorophenyl)methyl]-1-piperazinyl]acetyl]-4,5-dihydro-6-methylpyrazolo[1,5-a]pyrimidine-3-carbonitrile. dihydrochloride]
% Improvement ([1]; 10 mg/kg): 66% | responders at 100 mg/kg [2, 6]: 62% | responders at 200 mg/kg ([2]; Mus musculus, ip, 5 min, 200 mg/kg, read-out: % Survivors): 73%

CC(c1ccccc1)N1CCN(CC(=O)N2CC=C(c3cccc(C(F)(F)F)c3)n3ncc(C#N)c32)CC1 (centres unmarked) [Example 141]
% Improvement ([1]; 25 mg/kg): 39% | responders at 25 mg/kg ([2]; Mus musculus, ip, 5 min, 25 mg/kg, read-out: % Survivors): 4%

CN(C)CCN1CCN(CC(=O)N2CC=C(c3cccc(C(F)(F)F)c3)n3ncc(C#N)c32)CC1 [Example 97, 4-[[4-[2-(Dimethylamino)ethyl]-1-piperazinyl]acetyl]4,5-dihydro-7-[3-(trifluoromethyl)phenyl]pyrazolo[1,5-a]pyrimidine-3-carbonitrile. dihydrochloride]
inhibition at 10 µM [3]: 72%

N#Cc1cnn2c1N(C(=O)CCN1CCN(Cc3ccccc3)CC1)CC=C2c1cc(Cl)ccc1Cl [Example 71, 7-(2,5-Dichlorophenyl)-4,5-dihydro-4-[1-oxo-3-[4-(phenylmethyl)-1-piperazinyl]propyl]pyrazolo[1,5-a]pyrimidine-3-carbonitrile]
inhibition at 10 µM [3]: 79%

CN(C)CCCN1CCN(CC(=O)N2CC=C(c3cccc(C(F)(F)F)c3)n3ncc(C#N)c32)CC1 [Example 33, 4-[[4-[3-(Dimethylamino)propyl]-1-piperazinyl]acetyl]-4,5-dihydro-7-[3-(trifluoromethyl)phenyl]pyrazolo[1,5-a]pyrimidine-3-carbonitrile]
inhibition at 10 µM [3]: 89%

N#Cc1cnn2c1N(C(=O)CN1CCN(C(=O)Nc3ccccc3)CC1)CC=C2c1cccc(C(F)(F)F)c1 [Example 99, 4-[2-[3-Cyano-7-[3-(trifluoromethyl)phenyl]pyrazolo-[1,5-a]pyrimidin-4(5H)-yl]-2-oxoethyl]-N-phenyl-1-piperazinecarboxamide]
MABP/mmHg (mean arterial blood pressure) [4]: 125 mmHg | % Inhibition (3H-benzodiazepine binding) [5]: 24%

N#Cc1cnn2c1N(C(=O)CN1CCN(CCCOc3ccccc3)CC1)CCC2c1cccc(C(F)(F)F)c1 (centres unmarked) [Example 57, 4,5,6,7-Tetrahydro-4-[[4-(3-phenoxypropyl)-1-piperazinyl]acetyl]-7-[3-(trifluoromethyl)phenyl]pyrazolo[1,5-a]pyrimidine-3-carbonitrile]
inhibition at 10 µM [3]: 57% | responders at 10 mg/kg ([2]; Mus musculus, ip, 5 min, 10 mg/kg, read-out: % Survivors): 15%

N#Cc1cnn2c1N(C(=O)CCN1CCN(Cc3ccccc3)CC1)CC=C2c1cccc(C(F)(F)F)c1 [Example 27, 4,5-Dihydro-4-[1-oxo-3-[4-(phenylmethyl)-1-piperazinyl]propyl]-7-[3-(trifluoromethyl)phenyl]pyrazolo[1,5-a]pyrimidine-3-carbonitrile]
inhibition at 10 µM [3]: 80%
